Test results from US7335352B1, “Method of identifying agents that inhibit quorum sensing activity of gamma-proteobacteria” (priority 2003, dated 2008).
Entries after “also recorded” stand apart in the source; their conditions may differ. Read-outs that look alike come from different tables or passages of the source.

How the values were obtained:
[1] = tested on: P. aeruginosa PAO1; assay type: cell-based, Pseudomonas aeruginosa; settings: for Yield: substrate as energy source; for Use as sole source of energy or nitrogen: MES 5.5 media; for Utilization as an energy source: pH 5.5
Method: (§1) Media and growth conditions. LB, amended with antibiotics when appropriate, was used for growth and maintenance of all strains unless otherwise stated. For the 3OC12HSL-dependent enrichment of strain PAI-A and other growth experiments performed on this strain, modified “MES 5.5” defined-medium was used to enrich and study Variovorax paradoxus VAI-C (21). These modifications to the medium included buffering with 5 mM 3-(N-morpholino)-propanesulfonic acid (MOPS) at pH 7.2 and the addition of sodium sulfate (14 g·liter^−1) and magnesium chloride (4 g·liter^−1). For growth experiments with P. aeruginosa, “MES 5.5” defined medium was used as described previously (21) with the exception that it contained sodium sulfate, not sulfite, as S-source, a typographical error in the reported recipe. Unless otherwise noted, the medium was buffered to a pH of 5.5 with 5 mM 2-(N-morpholino)-ethanesulfonic acid (MES). Ammonium-free “MES 5.5” basal medium was used to examine the utilization of AHLs and HSL as potential nitrogen sources. 100 mM stock solutions of AHLs were prepared by dissolving AHLs in ethyl acetate that had been acidified with glacial acetic acid (0.01% v/v), and stocks were stored at −20° C. AHLs used in these studies were: N-3-oxododecanoyl-L-homoserine lactone (3OC12HSL; Quorum Sciences Inc., Iowa City Iowa), N-3-oxohexanoyl-L-homoserine lactone (3OC6HSL; Sigma), and from Fluka: N-3-butanoyl-DL-homoserine lactone (C4HSL), N-3-hexanoyl-DL-homoserine lactone (C6HSL), N-3-heptanoyl-DL-homoserine lactone (C7HSL), N-3-octanoyl-DL-homoserine lactone (C8HSL), N-3-[…], N-3-dodecanoyl-DL-homoserine lactone (C12HSL), N-3-tetradecanoyl-DL-homoserine lactone (C14HSL). For growth experiments, the AHL was dispensed into sterile tubes, the ethyl acetate was removed by evaporation under a stream of sterile air, and sterile medium was added to the dried AHL that remained. Stocks of L-HSL (Sigma) were prepared just prior to their use from well-desiccated reagent stored at −20° C. […] Cells were grown in 5 ml of medium in 18-mm tubes with shaking at 37° C. unless otherwise noted. AHL molecules are stable for approximately 30 days under the conditions of low pH in our defined medium (9, 34). Unless noted, all other reagents were of reagent grade.
(§2) Growth studies. Optical density measurements were performed at 600 nm using a Spectronic 20 spectrophotometer. […] When care was taken to vortex tubes gently, the changes in optical density reflecting growth could be monitored accurately. Molar growth yields were determined in the defined media containing the indicated substrate at a final concentration of 1 or 2 mM. For both Pseudomonas PAI-A and P. aeruginosa PAO1, factors for converting optical density to cell dry mass were determined by growing cells in media containing succinate as the energy source and NH4Cl as the nitrogen source, washing the cells with 50 mM ammonium acetate buffer (pH 5.5), and drying cell samples to a constant weight. Such determinations were made in quadruplicate.

[2] = tested on: Pseudomonas strain PAI-A; assay type: cell-based
Method: as §1, §2

[3] = molecular target: T1, PvdQ AHL acylase (Pseudomonas aeruginosa, UniProt Q9I194); assay: AHL degradation by resting E. coli cells expressing recombinant PvdQ (LC/APCI-MS); assay type: cell-based, P. aeruginosa; settings: for Product accumulation in PvdQ-expressing E. coli suspensions: incubated with 10 μM 3OC12HSL; for HSL-releasing degradation by E. coli expressing recombinant PvdQ: resting cells OD600 1.2, MOPS pH 7.2, 18° C., 10 μM 3OC12HSL
T1 construct: The deduced coding region for PvdQ (Gene PA2385; www.pseudomonas.com) was amplified from the genomic DNA; expressed in transfected cells; host or cells: E. coli BL21PRO carrying pPvdQ-PROTet (pPROTet.E133-derived, aTc-inducible)
Text: (§3) Analysis of cell-free culture and reaction fluids. […] Dilutions were made using “MES 5.5” medium.
Cloning and expression of pvdQ (PA2385) encoding a putative P. aeruginosa AHL acylase. Genomic DNA was isolated from P. aeruginosa PAO1 using the DNeasy™ tissue kit (QIAGEN) and used as a template for PCR. The deduced coding region for PvdQ (Gene PA2385; www.pseudomonas.com) was amplified from the genomic DNA using the following primers: 5′-[…]-3′ (SEQ ID NO:6) and 5′-[…]-3′ (SEQ ID NO:7; bold print indicates HindIII and NotI restriction sites, respectively), cloned into the appropriately digested expression vector, pPROTet.E133 (Clontech), and transformed into E. coli BL21PRO. Recombinant AHL acylase activity was examined as follows. After growth in LB medium containing spectinomycin (50 μg ml^−1) and chloramphenicol (34 μg ml^−1), and after gene induction by the addition of anhydrotetracycline (aTc, 100 ng ml^−1) at 18° C., cells were pelleted and resuspended to a final optical density of 1.2 in MOPS buffered media (pH 7.2) containing 10 μM 3OC12HSL. Recombinant cells that had not been induced with aTc were used as a negative control. Reaction mixtures were incubated at 18° C.; 150 μl samples were removed at 0, 15, 30, and 60 min and analyzed for AHL disappearance and product appearance via LC/APCI-MS (see above).

[4] = tested on: P. aeruginosa PA14; assay: Growth of P. aeruginosa PA14 on 3OC12HSL as sole energy source; assay type: cell-based, Pseudomonas aeruginosa; settings: defined ammonia-replete media, pH 5.5 and 7.2, naive cells after lag
Method: Media and growth conditions. LB, amended with antibiotics when appropriate, was used for growth and maintenance of all strains unless otherwise stated. For the 3OC12HSL-dependent enrichment of strain PAI-A and other growth experiments performed on this strain, modified “MES 5.5” defined-medium was used to enrich and study Variovorax paradoxus VAI-C (21). These modifications to the medium included buffering with 5 mM 3-(N-morpholino)-propanesulfonic acid (MOPS) at pH 7.2 and the addition of sodium sulfate (14 g·liter^−1) and magnesium chloride (4 g·liter^−1). For growth experiments with P. aeruginosa, “MES 5.5” defined medium was used as described previously (21) with the exception that it contained sodium sulfate, not sulfite, as S-source, a typographical error in the reported recipe. Unless otherwise noted, the medium was buffered to a pH of 5.5 with 5 mM 2-(N-morpholino)-ethanesulfonic acid (MES). Ammonium-free “MES 5.5” basal medium was used to examine the utilization of AHLs and HSL as potential nitrogen sources. 100 mM stock solutions of AHLs were prepared by dissolving AHLs in ethyl acetate that had been acidified with glacial acetic acid (0.01% v/v), and stocks were stored at −20° C. […]

[5] = tested on: P. aeruginosa PAO1; settings: dense PAO1 cell suspension; 25 mM C12HSL
Text: Analysis of cell-free culture and reaction fluids. For the initial characterization of the intermediates in AHL degradation, a TLC method was used (16).

[6] = tested on: Pseudomonas strain PAI-A; assay: TLC of reaction fluids of dense PAI-A cell suspensions incubated with AHL; assay type: cell-based; settings: dense PAI-A cell suspension; 25 mM C12HSL
Text: as §3

[7] = P. aeruginosa PAO1, minimal salts media pH 5.5
[8] = strain PAI-A, minimal salts media pH 7.2

T1 sequence (Q9I194 24-193): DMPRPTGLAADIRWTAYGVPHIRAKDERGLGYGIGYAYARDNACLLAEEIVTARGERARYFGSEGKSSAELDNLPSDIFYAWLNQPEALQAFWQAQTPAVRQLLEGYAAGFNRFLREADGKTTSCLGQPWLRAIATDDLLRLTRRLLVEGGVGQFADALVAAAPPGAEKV
T1 sequence (Q9I194 217-762): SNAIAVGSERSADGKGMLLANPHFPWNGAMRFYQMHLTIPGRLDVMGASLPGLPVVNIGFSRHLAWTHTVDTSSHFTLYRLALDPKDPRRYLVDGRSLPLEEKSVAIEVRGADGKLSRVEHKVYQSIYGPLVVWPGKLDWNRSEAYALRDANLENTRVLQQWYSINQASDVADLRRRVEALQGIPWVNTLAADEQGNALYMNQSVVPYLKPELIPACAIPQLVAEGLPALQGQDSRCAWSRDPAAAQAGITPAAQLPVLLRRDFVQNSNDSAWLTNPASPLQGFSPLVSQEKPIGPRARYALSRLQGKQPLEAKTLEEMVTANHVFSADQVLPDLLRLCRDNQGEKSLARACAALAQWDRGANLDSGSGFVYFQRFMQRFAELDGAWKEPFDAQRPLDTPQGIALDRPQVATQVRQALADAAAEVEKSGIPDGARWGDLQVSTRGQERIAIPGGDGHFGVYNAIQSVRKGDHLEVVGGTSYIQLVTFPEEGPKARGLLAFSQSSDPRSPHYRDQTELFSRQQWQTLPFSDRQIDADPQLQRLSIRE

SMILES	Yield [1, 7]	Yield [2, 8]	HSL-releasing degradation by E. coli expressing recombinant PvdQ [3]	Doubling time [1, 7]	also measured
CCCCCCCCCC(=O)O [Decanoate]	130 ± 3 g/mol	126 ± .5 g/mol			
N[C@H]1CCOC1=O [HSL, homoserine lactone]					Product accumulation in PvdQ-expressing E. coli suspensions [3]: accumulation of stoichiometric amounts; Use as sole source of energy or nitrogen ([1]; P. aeruginosa PAO1): did not use; Utilization as an energy source ([1]; P. aeruginosa PAO1): Neither strain PAI-A nor PAO1 used; also recorded: did not grow; Utilization as an energy source ([2]; strain PAI-A, pH 7.2): Neither strain PAI-A nor PAO1 used
CCCCCCCCCC(=O)CC(=O)N[C@H]1CCOC1=O [3OC12-L-HSL, N-3-oxododecanoyl-L-homoserine lactone]	76 ± 10 g/mol	84 ± .2 g/mol	degraded 3OC12HSL; also recorded: Within an hour, the AHL disappeared	25.0 ± 3 h	Doubling time ([1]; PAO1, defined ammonia-replete media, pH 5.5 and 7.2, naive cells after lag): 264 to 600 h; Doubling time [2, 8]: 25.0 ± 3.5 h; Doubling time [4]: 11 to 25 days
CCCCCCCCCCCCCC(=O)NC1CCOC1=O (racemic) [C14-DL-HSL, N-3-tetradecanoyl-DL-homoserine lactone]	84 ± 12 g/mol		catalyzed the HSL-releasing degradation	21.0 ± 5.3 h	Yield (qualitative) [2, 8]: +, ND^
N[C@@H](CCO)C(=O)O [homoserine]					Use as sole source of energy or nitrogen ([1]; P. aeruginosa PAO1): did not use; Utilization as an energy source ([1]; P. aeruginosa PAO1): did not grow
O=C(O)CCC(=O)O [Succinate]	43 ± 3 g/mol			0.6 ± .09 h	Doubling time [2]: 0.583 h; Doubling time ([2]; pH 7.2): 0.6 ± .02 h; Yield ([2]; pH 7.2): 49 ± 3.8 g/mol
CCCCCCCCCCCCCC(=O)O [Tetradecanoate]	177 ± 16 g/mol	198 ± 3 g/mol			
CCCCCCCCCC(=O)CC(=O)NC(CCO)C(=O)O (centres unmarked) [3OC12-homoserine]					Product accumulation in PvdQ-expressing E. coli suspensions [3]: No 3OC12-homoserine accumulation was observed
CCCCCCCCCCCC(=O)NC1CCOC1=O (racemic) [C12-DL-HSL, N-3-dodecanoyl-DL-homoserine lactone]	84 ± 7 g/mol	80 ± 18 g/mol	catalyzed the HSL-releasing degradation	14.9 ± 7.5 h	AHL-dependent release of ninhydrin-reactive materials (HSL, homoserine) by TLC [5]: AHL-dependent release of ninhydrin-reactive materials; Doubling time [2, 8]: 16.5 ± 3 h; AHL-dependent release of ninhydrin-reactive materials (HSL, homoserine) by TLC [6]: AHL-dependent release of ninhydrin-reactive materials
CCCCCCCCCCCC(=O)O [Dodecanoate]	141 ± 4 g/mol	155 ± 8.4 g/mol			
CCn1cc(C(=O)O)c(=O)c2ccc(C)nc21 [nalidixate]					Growth in media containing the agent ([2]; PAI-A, 30 μg nalidixate·ml^−1): did not grow
CCCCCCCCCC(=O)NC1CCOC1=O (racemic) [C10-DL-HSL, N-3-decanoyl-DL-homoserine lactone]	97 ± 3 g/mol		catalyzed the HSL-releasing degradation	14.0 ± 3.8 h	Yield (qualitative) [2, 8]: +, ND^
CCCCCCCC(=O)NC1CCOC1=O (racemic) [C8-DL-HSL, N-3-octanoyl-DL-homoserine lactone]	95 ± 4 g/mol		catalyzed the HSL-releasing degradation	15.0 ± 2 h	Yield (qualitative) [2, 8]: +, ND^b
CCCC(=O)NC1CCOC1=O (racemic) [C4HSL, N-3-butanoyl-DL-homoserine lactone]					Degradation of short chain AHL given as co-substrate ([1]; PAO-1, 1 mM C4HSL in 3OC12HSL-containing media): did not degrade detectable amounts; Degradation of short chain AHL given as co-substrate ([2]; PAI-A, 1 mM C4HSL in 3OC12HSL-containing media): did not degrade detectable amounts
